# From patent US9272040B2, “5-CNAC as oral delivery agent for parathyroid hormone fragments” (Novartis AG, priority 2001, dated 2016)
# Experiment: Primate administration: plasma hPTH by radioimmunoassay after oral capsule
# Type: in vivo
# Settings: Table 2 versus Table 1, Rhesus monkey
# Procedure: The capsules prepared in Example 1 are administered to Rhesus monkeys as follows: four monkeys in a group are each dosed with one capsule prepared as in Example 1 as follows:
# The Rhesus monkeys fast overnight prior to dosing and are restrained in chairs fully conscious, for the duration of the study period. The capsules are orally administered via a gavage tube followed by 10 ml of water.
# Blood samples are collected at 0, 0.25, 0.5, 0.75, 1, 1.5, 2, 3, 4, 5, and 6 hours after administration. Plasma hPTH levels are determined by radioimmunoassay. The primate plasma PTH results from each group of monkeys are averaged and the maximum mean plasma calculated.
smiles,measurement,value
"O=C(O)CCCCCCCNC(=O)c1cc(Cl)ccc1O [Capsule 5-CNAC, N-(5-chlorosalicyloyl)-8-aminocaprylic acid]",effect of carrier on oral delivery of the hPTH fragment,significantly facilitates the oral delivery of the hPTH fragment
